In patent publication US12398121B2 (Nuvation Bio Inc., priority 2018, dated 2025) one finds IC50 data, which are given here for four molecules.

What all share (type): cell-based
One test concerns PC-3 cells. In words: Cell proliferation assay (CellTiter Glo), PC-3. The following applies: Homo sapiens, PC-3, 168 h, read-out: PC-3 IC50. The method, then:
(§1) IC50 values were calculated and graphed using the model “log(inhibitor) vs. response—Variable slope” included in GraphPad Prism 5 (San Diego, CA). The Ki values were further calculated using the equation below where [L] was the radioligand concentration (1 nM) using in this study. Kd value was 0.332 nM. Ki=IC50/(1+[L]/Kd) c. AR transactivation: Human AR cloned into a CMV vector backbone was used for the transactivation study. HEK-293 cells were plated at 80,000 cells per well of a 24 well plate in DME+5% csFBS. Twenty four hours later, the cells were transfected using Lipofectamine (Invitrogen, Carlsbad, CA) with 0.25 μg GRE-LUC, 0.01 μg CMV-LUC (renilla luciferase) and 25 ng of the AR in OPTIMEM medium. The cells were treated 24 hrs after transfection with various ligands (10^−12 to 10^−5 M final concentrations) and luciferase assay were performed 48 hours after transfection. Firefly values were normalized to renilla luciferase values and the values were represented as relative light units (RLU). Agonist and antagonist assays for the test article were performed in the absence and in the combination with 0.1 nM R1881, respectively. Data were represented as EC50 (for agonists) and IC50 (for antagonists) obtained from four parameter logistics curve. Cell culture and proliferation assays: LNCaP, PC-3, 22RV1, MCF-7, HT-29, and HCT-116 cells were procured from American Type Culture Collection (ATCC). Cells were cultured in medium recommended by the ATCC. Cell culture medium was obtained from Fisher scientific (Waltham, MA) and serum was obtained from Hyclone (San Angelo, TX).
(§2) Cells were plated at varying density in the respective growth medium in 96 well plates. 24 hr later, cells were treated, in triplicate or quadruplicate, with test articles prepared in a range of concentrations by series dilution of DMSO stock solutions in growth medium and incubated for three to seven days. The number of viable 22RV1 and HT-29 cells was measured using CellTiter Glo assay (CTG, Promega, Madison, WI) after three days of treatment. The other types of cancer cells were re-treated at three or four days and the number of viable cells was measured using CTG assay after a total treatment time of six or seven days. Cell viability data were plotted using GraphPad Prism (GraphPad Software, Inc., San Diego, CA). In addition, a nonlinear regression model with a sigmoidal dose response and variable slope within GraphPad Prism was used to calculate the IC50 value of individual test articles. Additional cell proliferation assays: Other cancer cell lines are tested in a cell proliferation assay. For example, SK-OV-3 or OVCAR3 ovarian cancer cells are tested. […] The number of viable cells is measured using CellTiter Glo assay (CTG, Promega, Madison, WI) or similar. […]

A further test deals with HCT-116 cells. The experiment in a line: Cell proliferation assay (CellTiter Glo), HCT-116. The following applies: Homo sapiens, HCT-116, 168 h, read-out: HCT-116 IC50. As for the experimental part:
as §1, §2
(In ATP-based viability assays light output follows the ATP content of the culture.)

A further test deals with LNCaP cells. In words: Cell proliferation assay (CellTiter Glo), LNCaP. The following applies: Homo sapiens, 168 h, read-out: LNCaP IC50. The method, then: as §1
Cells were plated at varying density in the respective growth medium in 96 well plates. 24 hr later, cells were treated, in triplicate or quadruplicate, with test articles prepared in a range of concentrations by series dilution of DMSO stock solutions in growth medium and incubated for three to seven days. The number of viable 22RV1 and HT-29 cells was measured using CellTiter Glo assay (CTG, Promega, Madison, WI) after three days of treatment. The other types of cancer cells were re-treated at three or four days and the number of viable cells was measured using CTG assay after a total treatment time of six or seven days. Cell viability data were plotted using GraphPad Prism (GraphPad Software, Inc., San Diego, CA). In addition, a nonlinear regression model with a sigmoidal dose response and variable slope within GraphPad Prism was used to calculate the IC50 value of individual test articles. Additional cell proliferation assays: Other cancer cell lines are tested in a cell proliferation assay. For example, SK-OV-3 or OVCAR3 ovarian cancer cells are tested. Cells are cultured in medium recommended by the supplier (e.g., ATCC or JCRB Cell Bank), at 37° C. in a 5% CO2 environment. For the proliferation assay, cells are plated in the growth medium in 96 well plates. Seeding density is adjusted according to the cell type. 24 hr later, cells are treated, in triplicate or quadruplicate, with test articles prepared in a range of concentrations by series dilution of DMSO stock solutions in growth medium, and typically incubated for three to seven days, with test article-containing medium replaced after three or four days. The number of viable cells is measured using CellTiter Glo assay (CTG, Promega, Madison, WI) or similar. Cell viability data are plotted using GraphPad Prism (GraphPad Software, Inc., San Diego, CA). […]

In the next test the target is T1, Human AR (Homo sapiens, UniProt P10275).
T1 construct: expressed in transfected cells; host or cells: HEK-293
T1 sequence (P10275 1-920): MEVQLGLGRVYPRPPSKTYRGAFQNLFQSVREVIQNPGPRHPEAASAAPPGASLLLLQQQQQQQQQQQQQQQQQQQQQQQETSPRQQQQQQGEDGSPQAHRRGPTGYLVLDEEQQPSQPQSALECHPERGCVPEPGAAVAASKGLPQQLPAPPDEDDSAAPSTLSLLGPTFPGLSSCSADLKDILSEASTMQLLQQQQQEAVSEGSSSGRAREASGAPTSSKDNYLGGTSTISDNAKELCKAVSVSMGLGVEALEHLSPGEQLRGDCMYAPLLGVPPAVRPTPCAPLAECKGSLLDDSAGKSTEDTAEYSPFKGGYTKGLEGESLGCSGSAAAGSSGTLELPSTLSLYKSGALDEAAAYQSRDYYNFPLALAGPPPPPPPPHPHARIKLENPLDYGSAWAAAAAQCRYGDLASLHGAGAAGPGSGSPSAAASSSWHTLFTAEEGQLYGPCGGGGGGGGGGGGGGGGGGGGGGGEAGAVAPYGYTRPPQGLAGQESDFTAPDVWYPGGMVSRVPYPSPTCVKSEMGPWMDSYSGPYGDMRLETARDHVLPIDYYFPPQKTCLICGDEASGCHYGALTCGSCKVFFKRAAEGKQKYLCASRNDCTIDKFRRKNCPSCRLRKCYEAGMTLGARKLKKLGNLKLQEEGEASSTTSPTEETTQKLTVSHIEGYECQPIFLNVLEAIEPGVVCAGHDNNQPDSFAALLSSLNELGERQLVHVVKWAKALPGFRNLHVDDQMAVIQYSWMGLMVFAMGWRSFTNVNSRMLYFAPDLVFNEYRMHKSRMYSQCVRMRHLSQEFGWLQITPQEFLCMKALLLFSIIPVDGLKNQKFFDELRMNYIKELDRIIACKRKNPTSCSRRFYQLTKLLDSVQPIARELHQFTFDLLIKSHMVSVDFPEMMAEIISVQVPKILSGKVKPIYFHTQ
In words: AR transactivation (antagonist mode, GRE-LUC luciferase in HEK-293 cells). The settings on record: in combination with 0.1 nM R1881, read-out: AR Ant. IC50. The method, then: as §1

As to `CC1(C)C(=O)N(c2ccc(C#N)c(C(F)(F)F)c2)C(=S)N1c1ccc(C(=O)NCCCCCC(=O)N2CCN(C(=O)c3cc(Cc4n[nH]c(=O)c5ccccc45)ccc3F)CC2)c(F)c1` [Compound 1.1, 4-(3-(4-cyano-3-(trifluoromethyl)phenyl)-5,5-dimethyl-4-oxo-2-thioxoimidazolidin-1-yl)-2-fluoro-N-(6-(4-(2-fluoro-5-((4-oxo-3,4-dihydrophthalazin-1-yl)methyl)benzoyl)piperazin-1-yl)-6-oxohexyl)benzamide], the IC50 (commonly the midpoint of a concentration-inhibition curve) in the test with PC-3 cells was 50 nM; in the test with HCT-116 cells, 310 nM; with LNCaP cells it was 590 nM; on Human AR, 33 nM.
Consider `C[C@]12CCC(=O)C[C@@H]1CC[C@@H]1[C@@H]2CC[C@]2(C)[C@@H](OCCCCCC(=O)N3CCN(C(=O)c4cc(Cc5n[nH]c(=O)c6ccccc56)ccc4F)CC3)CC[C@@H]12` [Compound 1.2, 4-(3-(4-(6-(((5S,8R,9S,10S,13S,14S,17S)-10,13-dimethyl-3-oxohexadecahydro-1H-cyclopenta[a]phenanthren-17-yl)oxy)hexanoyl)piperazine-1-carbonyl)-4-fluorobenzyl)phthalazin-1(2H)-one], for which the concentration for half-maximal inhibition (IC50) in the test on PC-3 cells was determined as 240 nM; in the test with HCT-116 cells, 110 nM; in the test on LNCaP cells, 790 nM.
Regarding `CC1(C)C(=O)N(c2ccc(C#N)c(C(F)(F)F)c2)C(=S)N1c1ccc(C(=O)NCCCCCCNCc2ccc(-c3[nH]c4cc(F)cc5c4c3CCNC5=O)cc2)c(F)c1` [Compound 1.5, 4-(3-(4-cyano-3-(trifluoromethyl)phenyl)-5,5-dimethyl-4-oxo-2-thioxoimidazolidin-1-yl)-2-fluoro-N-(6-((4-(8-fluoro-1-oxo-2,3,4,6-tetrahydro-1H-azepino[5,4,3-cd]indol-5-yl)benzyl)amino)hexyl)benzamide], the 50% inhibitory concentration (IC50) at Human AR turned out to be 750 nM.
Turning to `C[C@](O)(CS(=O)(=O)c1ccc(NCCCCCC(=O)N2CCN(C(=O)c3cc(Cc4n[nH]c(=O)c5ccccc45)ccc3F)CC2)cc1)C(=O)Nc1ccc(C#N)c(C(F)(F)F)c1` [Compound 1.68, (R)-N-(4-cyano-3-(trifluoromethyl)phenyl)-3-(4-(6-(4-(2-fluoro-5-((4-oxo-3,4-dihydrophthalazin-1-yl)methyl)benzoyl)piperazin-1-yl)-6-oxohexylamino)phenylsulfonyl)-2-hydroxy-2-methylpropanamide], the IC50 at Human AR is 3300 nM.
